Columns and labels:
[1] = Chemical stability of compound in DMSO assessed as compound remaining at 10 mg/ml after 1 day at room temperature; type: physicochemical; settings: read-out: Stability
[2] = target: 5-hydroxytryptamine receptor 1B (Homo sapiens, UniProt P28222); experiment: Antagonist activity at human 5-HT1B receptor expressed in CHO-K1 cells assessed as seretonin-induced cAMP level by HTRF assay; type: functional, cell-based
[3] = target: 5-hydroxytryptamine receptor 6 (Homo sapiens, UniProt P50406); experiment: Antagonist activity at human 5-HT6 receptor expressed in 1321N1 cells assessed as seretonin-induced cAMP by HTRF assay; type: functional, cell-based
Adenosine receptor A2a = Adenosine receptor A2a (Homo sapiens, UniProt P29274); experiment: Antagonist activity at human wild-type A2A receptor expressed in CHO-K1 cells assessed as NECA-induced cAMP by HTRF assay; type: functional, cell-based
[4] = target: T1, Alpha-1A adrenergic receptor (Homo sapiens, UniProt P35348); experiment: Antagonist activity at human wild-type alpha 1A receptor expressed in CHO cells assessed as EP-induced calcium by HTRF assay; type: functional, cell-based
T1 sequence (P35348 whole entry): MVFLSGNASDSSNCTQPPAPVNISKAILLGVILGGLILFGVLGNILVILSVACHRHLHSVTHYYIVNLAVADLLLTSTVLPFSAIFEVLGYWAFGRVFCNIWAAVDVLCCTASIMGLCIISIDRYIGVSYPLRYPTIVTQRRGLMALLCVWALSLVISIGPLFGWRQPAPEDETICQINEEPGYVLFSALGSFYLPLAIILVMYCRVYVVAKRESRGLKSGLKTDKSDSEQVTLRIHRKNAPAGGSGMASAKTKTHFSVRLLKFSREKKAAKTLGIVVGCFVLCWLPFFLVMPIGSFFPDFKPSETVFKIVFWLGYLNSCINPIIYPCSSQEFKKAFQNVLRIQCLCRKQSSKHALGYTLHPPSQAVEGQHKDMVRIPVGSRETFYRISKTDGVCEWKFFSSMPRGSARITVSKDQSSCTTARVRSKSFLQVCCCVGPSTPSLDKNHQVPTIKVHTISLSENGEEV

[5] = target: T2, Muscarinic acetylcholine receptor M1 (Homo sapiens, UniProt P11229); experiment: Antagonist activity at human wild-type M1 receptor expressed in CHO-K1 cells assessed as acetylcholine-induced calcium by FDSS assay; type: functional, cell-based
T2 sequence (P11229 whole entry): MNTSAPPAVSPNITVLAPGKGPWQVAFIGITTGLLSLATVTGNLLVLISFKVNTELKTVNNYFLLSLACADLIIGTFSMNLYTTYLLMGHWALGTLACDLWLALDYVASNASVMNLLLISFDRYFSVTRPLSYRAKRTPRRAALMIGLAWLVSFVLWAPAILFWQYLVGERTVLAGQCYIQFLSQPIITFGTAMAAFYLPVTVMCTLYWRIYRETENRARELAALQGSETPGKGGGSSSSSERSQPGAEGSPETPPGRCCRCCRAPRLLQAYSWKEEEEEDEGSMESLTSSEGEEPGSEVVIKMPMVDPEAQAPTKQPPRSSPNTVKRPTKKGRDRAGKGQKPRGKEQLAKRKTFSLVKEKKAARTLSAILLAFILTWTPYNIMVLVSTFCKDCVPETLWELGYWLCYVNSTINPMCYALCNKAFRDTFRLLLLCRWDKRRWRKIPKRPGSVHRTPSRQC

[6] = target: T3, Muscarinic acetylcholine receptor M2 (Homo sapiens, UniProt P08172); experiment: Antagonist activity at human wild-type M2 receptor expressed in CHO-K1 cells assessed as acetylcholine-induced cAMP by HTRF assay; type: functional, cell-based
T3 sequence (P08172 whole entry): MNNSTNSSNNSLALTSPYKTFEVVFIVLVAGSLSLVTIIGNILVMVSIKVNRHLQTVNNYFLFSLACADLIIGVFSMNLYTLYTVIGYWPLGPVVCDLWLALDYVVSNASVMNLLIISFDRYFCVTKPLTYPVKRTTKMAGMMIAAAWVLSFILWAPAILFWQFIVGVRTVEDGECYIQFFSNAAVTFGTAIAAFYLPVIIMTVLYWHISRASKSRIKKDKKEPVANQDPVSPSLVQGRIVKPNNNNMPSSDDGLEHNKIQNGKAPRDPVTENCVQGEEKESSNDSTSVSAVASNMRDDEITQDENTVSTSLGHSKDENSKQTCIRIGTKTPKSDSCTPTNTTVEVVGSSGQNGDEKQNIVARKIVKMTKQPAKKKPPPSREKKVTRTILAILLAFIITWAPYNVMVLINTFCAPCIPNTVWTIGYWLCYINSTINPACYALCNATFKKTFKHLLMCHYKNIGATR

[7] = target: T4, 5-hydroxytryptamine receptor 2C (Homo sapiens, UniProt P28335); experiment: Agonist activity at human 5-HT2C receptor expressed in CHO-K1 cells assessed as calcium level by FDSS assay; type: functional, cell-based
T4 sequence (P28335 whole entry): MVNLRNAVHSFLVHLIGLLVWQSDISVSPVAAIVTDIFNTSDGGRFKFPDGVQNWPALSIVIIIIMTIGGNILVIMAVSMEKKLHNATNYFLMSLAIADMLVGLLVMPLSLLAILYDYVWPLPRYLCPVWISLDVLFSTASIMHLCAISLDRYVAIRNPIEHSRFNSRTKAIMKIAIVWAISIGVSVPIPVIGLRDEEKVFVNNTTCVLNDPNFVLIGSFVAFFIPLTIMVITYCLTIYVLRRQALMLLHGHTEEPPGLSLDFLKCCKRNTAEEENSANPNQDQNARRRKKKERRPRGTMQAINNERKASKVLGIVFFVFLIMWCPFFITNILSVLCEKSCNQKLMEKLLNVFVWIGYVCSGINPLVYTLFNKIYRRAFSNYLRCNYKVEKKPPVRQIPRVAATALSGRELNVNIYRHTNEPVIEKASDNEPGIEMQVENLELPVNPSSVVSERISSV

Endothelin-1 receptor = target: T5, Endothelin-1 receptor (Homo sapiens, UniProt P25101); experiment: Agonist activity at human wild-type ETA receptor expressed in CHO-K1 cells assessed as calcium level by HTRF assay; type: functional, cell-based
T5 sequence (P25101 whole entry): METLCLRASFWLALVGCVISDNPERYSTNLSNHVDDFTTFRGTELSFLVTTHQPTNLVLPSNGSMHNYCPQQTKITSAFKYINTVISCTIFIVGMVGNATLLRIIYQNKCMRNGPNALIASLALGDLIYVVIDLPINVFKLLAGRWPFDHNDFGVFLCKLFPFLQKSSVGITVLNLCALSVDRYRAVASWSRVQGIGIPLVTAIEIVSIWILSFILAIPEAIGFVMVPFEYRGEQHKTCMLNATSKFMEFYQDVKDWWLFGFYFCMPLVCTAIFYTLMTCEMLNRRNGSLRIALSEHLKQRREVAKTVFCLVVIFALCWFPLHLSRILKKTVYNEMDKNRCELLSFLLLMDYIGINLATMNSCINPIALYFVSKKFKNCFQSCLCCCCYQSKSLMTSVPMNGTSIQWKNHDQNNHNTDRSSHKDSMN

human MDR1 = experiment: Permeability across apical to basolateral in MDCK expressing human MDR1 at 5 uM by LC-MS/MS method; type: ADME, cell-based, Canis lupus familiaris; settings: dog, read-out: permeability
HepG2 = experiment: Cytotoxicity against human HepG2 cells; type: cell-based
[8] = Cmax in Swiss mouse brain at 5 mg/kg, sc; type: ADME, organism-based; design: dose 5 mg/kg, route subcutaneous

Sequence of 5-hydroxytryptamine receptor 1B (P28222 whole entry): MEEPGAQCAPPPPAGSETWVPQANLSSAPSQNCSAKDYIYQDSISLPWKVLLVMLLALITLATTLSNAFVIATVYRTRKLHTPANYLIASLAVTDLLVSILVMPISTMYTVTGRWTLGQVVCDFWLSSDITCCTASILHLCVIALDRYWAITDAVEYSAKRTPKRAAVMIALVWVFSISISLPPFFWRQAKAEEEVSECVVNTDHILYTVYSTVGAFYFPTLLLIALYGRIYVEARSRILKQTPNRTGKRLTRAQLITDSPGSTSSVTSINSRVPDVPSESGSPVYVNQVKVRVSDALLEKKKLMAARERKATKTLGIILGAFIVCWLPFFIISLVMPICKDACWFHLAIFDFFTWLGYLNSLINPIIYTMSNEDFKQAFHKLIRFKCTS
Sequence of Adenosine receptor A2a (P29274 whole entry): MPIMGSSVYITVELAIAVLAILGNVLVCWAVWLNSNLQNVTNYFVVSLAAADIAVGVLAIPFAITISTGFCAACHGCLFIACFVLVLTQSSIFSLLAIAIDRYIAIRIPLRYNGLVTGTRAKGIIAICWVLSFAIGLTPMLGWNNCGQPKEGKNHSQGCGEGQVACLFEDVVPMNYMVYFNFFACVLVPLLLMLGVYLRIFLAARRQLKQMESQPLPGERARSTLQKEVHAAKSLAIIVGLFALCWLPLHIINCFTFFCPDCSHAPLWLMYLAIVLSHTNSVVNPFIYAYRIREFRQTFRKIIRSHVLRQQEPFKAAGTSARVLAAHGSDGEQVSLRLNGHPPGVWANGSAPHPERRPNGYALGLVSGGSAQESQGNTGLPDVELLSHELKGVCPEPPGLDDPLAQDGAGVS
Sequence of 5-hydroxytryptamine receptor 6 (P50406 whole entry): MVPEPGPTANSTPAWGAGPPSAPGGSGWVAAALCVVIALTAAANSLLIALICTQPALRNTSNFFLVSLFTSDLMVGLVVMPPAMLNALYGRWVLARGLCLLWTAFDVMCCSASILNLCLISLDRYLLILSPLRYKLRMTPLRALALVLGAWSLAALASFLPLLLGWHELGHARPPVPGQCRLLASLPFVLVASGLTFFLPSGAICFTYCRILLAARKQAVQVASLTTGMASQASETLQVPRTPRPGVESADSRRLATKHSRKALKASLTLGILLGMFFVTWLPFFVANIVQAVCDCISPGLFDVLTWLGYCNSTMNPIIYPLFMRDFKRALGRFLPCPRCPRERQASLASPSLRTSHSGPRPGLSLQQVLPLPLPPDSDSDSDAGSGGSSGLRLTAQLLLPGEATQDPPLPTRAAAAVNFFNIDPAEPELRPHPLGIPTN

remaining at 24 h, 10 mg/ml [1]	IC50 [2]	IC50 [3]	IC50 (Adenosine receptor A2a)	IC50 [4]	IC50 [5]	IC50 [6]	EC50 [7]	EC50 (Endothelin-1 receptor)	Papp A→B at 5 µM (human MDR1)	Cmax [8]	Structure (SMILES)	EC20 (HepG2)
96%	> 5.01 µM	> 5.01 µM	> 5.01 µM	> 5.01 µM	> 5.01 µM	> 5.01 µM	> 5.01 µM	> 5.01 µM	1.3 ×10⁻⁶ cm/s	7 µM	CB1C=Cc2cccc(OCC(O)CNC(C)C)c2N1 (centres undefined)	18.7 µM
97%	> 5.01 µM	> 5.01 µM	> 5.01 µM	> 5.01 µM	> 5.01 µM	> 5.01 µM	> 5.01 µM	> 5.01 µM	2.3 ×10⁻⁶ cm/s	62 µM	CB1C=Cc2c(cccc2OCC(O)CN(C)C)N1 (centres undefined)	59 µM

— ChEMBL document CHEMBL3734721 (J Med Chem, 2015)
